Measured values published in patent US20250114329A1, “METHODS FOR TREATING AML-MRC AND MDS” (Ascentage Pharma (Suzhou) Co., LTD, priority 2022, published 2025).

What was measured:
[1] = system: R/R AML with myelodysplasia-related changes; assay: Phase Ib/II study of Compound C alone or in combination with 5-azacitidine or cytarabine (Example 2); assay type: in vivo, human; conditions: Compound C alone, person, R/R AML-MRC
Source text: This was a three parts study in patients with relapsed/refractory acute myeloid leukemia (AML), relapsed or progressed high or very high risk myelodysplastic syndrome (MDS) that was designed to evaluate the safety and tolerability of Compound C as a single agent in Part I, followed by a combination dose escalation of Compound C plus either 5-azacitidine or cytarabine in Part II and a dose expansion of the combination treatment in part III. Part I: Dose escalation of Compound C will use standard 3+3 design. Compound C will be administered orally once daily (QD) on Day 1 to 7 every 28-day cycle. The starting target dose is 100 mg (dose level; DL1) and will be increased in subsequent cohorts to 150 mg (DL2), 200 mg (DL3) and 250 mg (DL4), accordingly. Part II: Dose escalation of Compound C combination with either 5-azacitidine or cytarabine, which includes two Arms, Arm A and Arm B. Arm A will enroll patients with relapsed or progressed high or very high risk MDS and Arm B will enroll patients with R/R AML. In this part, 5-azacitidine and cytarabine will be administered with fixed dose. The starting dose of Compound C was 100 mg and will be increased subsequently to 150 mg and 200 mg. In Arm A, Compound C will be co-administered with 5-azacitidine subcutaneously injected at 75 mg/m^2 once daily on Day 1 to 7 every 28-day cycle. In Arm B, Compound C will be co-administered once daily on Day 1 to 7 every 28-day cycle with cytarabine intravenously administered at 1 g/m^2 once daily on Day 3 to 7 every 28-day cycle.

H929 cells = assay: Western Blotting assay; assay type: cell-based, human; conditions: 24 hrs or 48 hrs
Method: After treatments with single or combined test articles, cultured cells were harvested and washed with ice-cold PBS. Cell pellets were lysed in RIPA buffer containing 1% PMSF, 1% phosphatase inhibitor, and 1% protease inhibitors. Protein concentrations were determined using the BCA Protein Assay Kit. Whole tumor lysates ([…]) were separated on an 8-12% SDS-PAGE. The separated proteins were transferred to a PVDF membrane. The PVDF membrane was blocked with 1-3% BSA buffer for 30 min to 1 hour at room temperature. Incubate membrane with diluted primary antibody in 1×TBST containing 1-3% BSA at 4° C., with gentle agitation overnight. Wash the membrane with 1×TBST three times. Incubate membrane with HRP-conjugated secondary antibody with gentle agitation for 1 hour at room temperature. Wash the membrane with 1×TBST three times. The signals were visualized with Super ECL Detection Reagent and detected by chemiluminescence imaging system.

[2] = system: relapsed/refractory AML, CMML or MDS (AML-MRC subject); assay: Phase Ib/II study of Compound C alone or in combination with azacitidine (Example 1); assay type: in vivo, human; conditions: Compound C alone, 150 mg
Source text: This was a two part study in patients with relapsed/refractory (R/R) acute myeloid leukemia (AML), Chronic Myelomonocytic Leukemia (CMML) and relapsed/progressed higher-risk myelodysplastic syndrome (MDS), that was designed to evaluate the safety and tolerability of Compound C as a single agent in Part I, followed by a combination of Compound C plus 5-azacitidine in Part II. Part I: Dose escalation of Compound C will use standard 3+3 design. Compound C will be administered orally once daily (QD) on Day 1 to 5 every 28-day cycle. The starting target dose is 100 mg (dose level; DL1) and will be increased in subsequent cohorts to 150 mg (DL2), 200 mg (DL3) and 250 mg (DL4), accordingly. Part II: Compound C will be co-administered with 5-azacitidine SC or IV at 75 mg/m^2 once daily on 7 out of 9 days from Day 1 to Day 9 every 28-day cycle.

Question: With `CCN1[C@@H](C(=O)NC23CCC(C(=O)O)(CC2)CC3)[C@H](c2cccc(Cl)c2F)[C@]2(C(=O)Nc3cc(Cl)ccc32)C12CCCCC2` [Compound C, alrizomadlin] as the molecule, how does the Response ([1]; 100 mg, prior D-CAG, C1D62) read?
Answer: CRi

Question: What about the Response ([1]; 200 mg, prior D-CAG, C3D21) of the same molecule?
Answer: CRi

Question: And the Response ([1]; 250 mg, several prior regimens)?
Answer: MLFS

Question: And the “P53, MDM2 and P21 expression” value (H929 cells)?
Answer: upregulated

Question: And the “End of cycle 1 disease assessment” value ([2]; person, AML-MRC (TP53w, FLT3-, IDH1/2-), prior venetoclax + decitabine)?
Answer: CRi

Question: What about the “Blast at C2D1” value ([2]; reduced from 43%, Day 1 of cycle 2) of the same molecule?
Answer: to 13%

Question: What about the “Blast at C3D1” value ([2]; reduced from 43%, Day 1 of cycle 3) of the same molecule?
Answer: C2D1, to 3%
